# Results from patent US9670227B2, “Thienopyrimidine derivatives, a process for their preparation and pharmaceutical compositions containing them” (LES LABORATOIRES SERVIER, priority 2013, dated 2017).
# Target: Mcl-1 protein (UniProtKB primary accession number: Q07820) (Homo sapiens, UniProt Q07820)
# Assay: Inhibition of Mcl-1 by fluorescence polarisation, Method 1
# Assay type: binding
# Settings: fluorescence polarisation; Method 1, or Method 2; read-out: IC50 (M) Mcl-1 FP
# How it was run: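 FP competition, 11-point compound titration in 5% final DMSO; protein and labelled probe at 5 nM and 1 nM final in HEPES/NaCl/Tween 20 buffer, pH 7.4.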
# Mcl-1 protein, sequence (Q07820 whole entry): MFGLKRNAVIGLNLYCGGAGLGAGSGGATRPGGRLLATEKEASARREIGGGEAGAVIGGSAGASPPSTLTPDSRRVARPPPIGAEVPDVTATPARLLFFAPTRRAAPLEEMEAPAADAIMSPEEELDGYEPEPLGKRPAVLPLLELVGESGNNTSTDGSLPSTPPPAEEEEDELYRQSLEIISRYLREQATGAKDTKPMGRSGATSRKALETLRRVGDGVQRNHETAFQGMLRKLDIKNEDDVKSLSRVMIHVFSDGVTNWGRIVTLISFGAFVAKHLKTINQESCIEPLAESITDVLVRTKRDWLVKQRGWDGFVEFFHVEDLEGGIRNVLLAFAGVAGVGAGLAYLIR
row,IC50 [M],Structure (SMILES)
1,5e-08,"CC#Cc1sc2ncnc(OC(Cc3ccccc3OC)C(=O)O)c2c1-c1cc(N2CCN(C)CC2)c(OC)c(Cl)c1C [Example 473, (2R)-2-({(5Sa)-5-[3-chloro-4-methoxy-2-methyl-5-(4-methylpiperazin-1-yl)phenyl]-6-(prop-1-yn-1-yl)thieno[2,3-d]pyrimidin-4-yl}oxy)-3-(2-methoxyphenyl)propanoic acid]"
2,5.5e-07,"CC#Cc1sc2ncnc(OC(Cc3ccccc3OC)C(=O)O)c2c1-c1cc(C)c(OCCN2CCN(C)CC2)c(Cl)c1C [Example 474, (2R)-2-{[(5Ra)-5-{3-chloro-2,5-dimethyl-4-[2-(4-methylpiperazin-1-yl)ethoxy]phenyl}-6-(prop-1-yn-1-yl)thieno[2,3-d]pyrimidin-4-yl]oxy}-3-(2-methoxyphenyl)propanoic acid]"
3,2.8e-08,"CC#Cc1sc2ncnc(OC(Cc3ccccc3OC)C(=O)O)c2c1-c1ccc(O)c(Cl)c1C [Example 480, (2R)-2-{[(5Sa)-5-(3-chloro-4-hydroxy-2-methylphenyl)-6-(prop-1-yn-1-yl)thieno[2,3-d]pyrimidin-4-yl]oxy}-3-(2-methoxyphenyl)propanoic acid]"
4,7.4e-09,"CC#Cc1sc2ncnc(O[C@H](Cc3ccccc3OCc3ccnc(-c4ccccc4OC)n3)C(=O)O)c2c1-c1ccc(OCCN2CCN(C)CC2)c(Cl)c1C [Example 482, (2R)-2-{[(5Sa)-5-{3-chloro-2-methyl-4-[2-(4-methylpiperazin-1-yl)ethoxy]phenyl}-6-(prop-1-yn-1-yl)thieno[2,3-d]pyrimidin-4-yl]oxy}-3-(2-{[2-(2-methoxyphenyl)pyrimidin-4-yl]methoxy}phenyl)propanoic acid]"
5,3e-09,"CC#Cc1sc2ncnc(OC(Cc3ccccc3OCc3ccnn3CCCC)C(=O)O)c2c1-c1ccc(OCCN2CCN(C)CC2)c(Cl)c1C [Example 490, (2R)-3-{2-[(1-butyl-1H-pyrazol-5-yl)methoxy]phenyl}-2-{[(5Sa)-5-{3-chloro-2-methyl-4-[2-(4-methylpiperazin-1-yl)ethoxy]phenyl}-6-(prop-1-yn-1-yl)thieno[2,3-d]pyrimidin-4-yl]oxy}propanoic acid]"
6,5e-09,"CC/C=C\c1sc2ncnc(O[C@H](Cc3ccccc3)C(=O)O)c2c1-c1ccc(OCCN2CCN(C)CC2)c(Cl)c1C [Example 493, (2R)-2-[(6-[(1Z)-but-1-en-1-yl]-(5Sa)-5-{3-chloro-2-methyl-4-[2-(4-methylpiperazin-1-yl)ethoxy]phenyl}thieno[2,3-d]pyrimidin-4-yl)oxy]-3-phenylpropanoic acid]"
7,4.4e-08,"CC(C)=Cc1sc2ncnc(OC(Cc3ccccc3)C(=O)O)c2c1-c1ccc(OCCN2CCN(C)CC2)c(Cl)c1C [Example 494, (2R)-2-{[(5Sa)-5-{3-chloro-2-methyl-4-[2-(4-methylpiperazin-1-yl)ethoxy]phenyl}-6-(2-methylprop-1-en-1-yl)thieno[2,3-d]pyrimidin-4-yl]oxy}-3-phenylpropanoic acid]"
8,2e-07,"Cc1c(-c2c(-c3cc4ccccc4o3)sc3ncnc(OC(Cc4ccccc4)C(=O)O)c23)ccc(OCCN2CCN(C)CC2)c1Cl [Example 496, (2R)-2-{[6-(1-benzofuran-2-yl)-(5Sa)-5-{3-chloro-2-methyl-4-[2-(4-methylpiperazin-1-yl)ethoxy]phenyl}thieno[2,3-d]pyrimidin-4-yl]oxy}-3-phenylpropanoic acid]"
9,7.4e-08,"Cc1c(-c2c(-c3ccc(F)cc3)sc3ncnc(OC(Cc4ccccc4)C(=O)O)c23)ccc(OCCN2CCN(C)CC2)c1Cl [Example 498, (2R)-2-{[(5Sa)-5-{3-chloro-2-methyl-4-[2-(4-methylpiperazin-1-yl)ethoxy]phenyl}-6-(4-fluorophenyl)thieno[2,3-d]pyrimidin-4-yl]oxy}-3-phenylpropanoic acid]"
10,1.9e-08,"Cc1c(-c2c(-c3ccccc3)sc3ncnc(OC(Cc4ccccc4)C(=O)O)c23)ccc(OCCN2CCN(C)CC2)c1Cl [Example 502, (2R)-2-[((5Sa)-5-{3-chloro-2-methyl-4-[2-(4-methylpiperazin-1-yl)ethoxy]phenyl}-6-phenylthieno[2,3-d]pyrimidin-4-yl)oxy]-3-phenylpropanoic acid]"
11,2.9e-08,"Cc1c(-c2c(-c3ccco3)sc3ncnc(OC(Cc4ccccc4)C(=O)O)c23)ccc(OCCN2CCN(C)CC2)c1Cl [Example 504, (2R)-2-{[(5Sa)-5-{3-chloro-2-methyl-4-[2-(4-methylpiperazin-1-yl)ethoxy]phenyl}-6-(furan-2-yl)thieno[2,3-d]pyrimidin-4-yl]oxy}-3-phenylpropanoic acid]"
12,5.8e-08,"Cc1c(-c2c(-c3cccs3)sc3ncnc(OC(Cc4ccccc4)C(=O)O)c23)ccc(OCCN2CCN(C)CC2)c1Cl [Example 505, (2R)-2-{[(5Sa)-5-{3-chloro-2-methyl-4-[2-(4-methylpiperazin-1-yl)ethoxy]phenyl}-6-(thiophen-2-yl)thieno[2,3-d]pyrimidin-4-yl]oxy}-3-phenylpropanoic acid]"
13,2.2e-07,"Cc1c(-c2c(-c3ccncc3)sc3ncnc(OC(Cc4ccccc4)C(=O)O)c23)ccc(OCCN2CCN(C)CC2)c1Cl [Example 507, (2R)-2-{[(5Sa)-5-{3-chloro-2-methyl-4-[2-(4-methylpiperazin-1-yl)ethoxy]phenyl}-6-(pyridin-4-yl)thieno[2,3-d]pyrimidin-4-yl]oxy}-3-phenylpropanoic acid]"
14,3.7e-07,"Cc1c(-c2c(-c3ccnn3C)sc3ncnc(OC(Cc4ccccc4)C(=O)O)c23)ccc(OCCN2CCN(C)CC2)c1Cl [Example 508, (2R)-2-{[(5Sa)-5-{3-chloro-2-methyl-4-[2-(4-methylpiperazin-1-yl)ethoxy]phenyl}-6-(1-methyl-1H-pyrazol-5-yl)thieno[2,3-d]pyrimidin-4-yl]oxy}-3-phenylpropanoic acid]"
15,4.8e-07,"Cc1sccc1-c1sc2ncnc(OC(Cc3ccccc3)C(=O)O)c2c1-c1ccc(OCCN2CCN(C)CC2)c(Cl)c1C [Example 511, (2R)-2-{[(5Sa)-5-{3-chloro-2-methyl-4-[2-(4-methylpiperazin-1-yl)ethoxy]phenyl}-6-(2-methylthiophen-3-yl)thieno[2,3-d]pyrimidin-4-yl]oxy}-3-phenylpropanoic acid]"
16,3.7e-07,"Cc1c(-c2c(-c3cnn(C)c3)sc3ncnc(OC(Cc4ccccc4)C(=O)O)c23)ccc(OCCN2CCN(C)CC2)c1Cl [Example 513, (2R)-2-{[(5Sa)-5-{3-chloro-2-methyl-4-[2-(4-methylpiperazin-1-yl)ethoxy]phenyl}-6-(1-methyl-1H-pyrazol-4-yl)thieno[2,3-d]pyrimidin-4-yl]oxy}-3-phenylpropanoic acid]"

# Same assay, conditions: partial inhibitors; @ 10 uM test compound
row,"percentage fluorescence polarisation inhibition, Mcl-1 FP [% @ 10 uM]",Structure (SMILES)
1,13.05,"CC#Cc1sc2ncnc(O[C@H](Cc3ccccc3OC)C(=O)O)c2c1-c1cc(N2CCN(C)CC2)c(OC)c(Cl)c1C [Example 472, (2R)-2-({(5Ra)-5-[3-chloro-4-methoxy-2-methyl-5-(4-methylpiperazin-1-yl)phenyl]-6-(prop-1-yn-1-yl)thieno[2,3-d]pyrimidin-4-yl}oxy)-3-(2-methoxyphenyl)propanoic acid]"
2,28.3,"CC#Cc1sc2ncnc(O[C@@H](Cc3cccc4occc34)C(=O)O)c2c1-c1ccc(OCCN2CCN(C)CC2)c(Cl)c1C [Example 491, (2S)-3-(1-benzofuran-4-yl)-2-{[(5Ra)-5-{3-chloro-2-methyl-4-[2-(4-methylpiperazin-1-yl)ethoxy]phenyl}-6-(prop-1-yn-1-yl)thieno[2,3-d]pyrimidin-4-yl]oxy}propanoic acid]"
